The text below walks through data of US5922554A, “Inhibition of cellular uptake of cholesterol” (The Regents of the University of California, priority 1996, dated 1999).

The subject of assay [1] is fibroblast monolayers. Briefly: Influx/uptake of ^3 H-FC (free cholesterol) from labeled LDL (or plasma, HDL) into normal fibroblast monolayers. The class given is cell-based, human. Details: Emax: dose or concentration left out as unconfirmed. Conditions: for effect on uptake of ^3 H-FC from LDL: up to 60 μM; for FC Influx: LDL-FC 60.2 μg ml^-1, 60 min, 37° C., 30 min preequilibration with inhibitor at: Na-azide 1 mM, NH4-vanadate 1 mM, NEM 2 mM, KNO3 50 mM, progesterone 30 μM, forskolin 30 μM, IBMX 100 μM, chloroquine 20 μM; for FC Influx, % (PBS only = 100.0): same concentrations and conditions as Table 3 FC influx, 60 min; for inhibition at higher concentration (words): up to 100 μM; for effect on LDL FC uptake: Table 3 conditions.

Assay [2] concerns fibroblast monolayers. Briefly: Transfer of intracellular ^3 H-FC to the cell surface (cholesterol oxidase accessibility). Conditions: for % transfer of intracellular ^3 H-FC to the cell surface, relative to rate in absence of inhibitor: NEM 2 mM, KNO3 50 mM, nocodazole, brefeldin A, vinblastine 40 μM, pulse labeled 2 min 31° C., then 30 min 31° C. The class given is cell-based, human. As for the experimental part: This assay utilized the finding (see Example 1) that only FC in the caveolar fraction of the plasma membrane fraction was modified by cholesterol oxidase in unfixed fibroblast monolayers.
The rate at which intracellular LDL-derived ^3 H-FC became accessible at the cell surface was measured as follows. Cell monolayers were labeled with ^3 H-FC LDL under the conditions shown for each experiment. Unbound and adsorbed LDL were removed as described above. In some experiments metabolic inhibitors of different transport steps were then added for 30 min at 15° C. […] Cholesterol oxidase (Boehringer-Manheim, Indianapolis, Ind., USA) was added in PBS to a final concentration of 1 U ml^-1. Incubation was for 4 h at 0° C. The cells were washed with ice-cold PBS, and extracted with 0. 1N NAOH. Cell total lipid was extracted with chloroform-methanol (1:1 v/v). […] .
Fibroblast monolayers were prelabeled with FC-labeled LDL for 2 min at 31° C. Medium and surface-bound labeled LDL were removed as described above. The cells were incubated with inhibitors of intracellular transport for 30 min at 15° C. Movement of FC label to the cell surface remained negligible (FIG. 11).
^a Relative to rate in the absence of inhibitor. Values are expressed

Assay [3] relates to fibroblast monolayers. As to the kind of experiment: D2O-Ficoll density gradient fractionation of ^3 H-FC labeled fibroblasts. Format: cell-based, human. Conditions: clathrin fraction d 1.12 g ml^-1; NEM 2 mM. As for the experimental part: Early endosomal vesicles were labeled with LDL-derived ^3 H-FC by a modification of procedures described by Woodman & Warren (1991) J. Cell Biol., 112:1133-1141. Fibroblast monolayers in 10 cm dishes were washed in ice-cold PBS. The cells were labeled by incubation (2 h, 4° C.) with ^3 H-FC LDL. The monolayers were washed in PBS and brought to 31° C. for 0-15 min. The cells were then quickly chilled on ice, and cold unlabeled LDL was added (15 min, 4° C.) to displace any remaining surface-bound labeled LDL and all subsequent steps were carried out at 0-4° C.
Cells from three 10 cm dishes were used for each gradient. Monolayers were washed with 140 mM sucrose, 0.5 mM MgCl2, 1 mM EGTA, 20 mM 2-[N-morpholino]ethanesulfonic acid (MES), 70 mM potassium acetate, pH 6.6 (`vesicle buffer`) (Woodman & Warren, supra.). The cells were scraped from the dishes. Dithiothreitol (1 mm) and protease inhibitors (PMSF, 200 μg ml^-1; benzamidine 0.5 mM; soybean trypsin inhibitor 10 μg ml^-1; leupeptin 1 μg ml^-1) were added. The cells were broken with a Dounce homogenizer (15 strokes) and the homogenate centrifuged at 500× g for 5 min. Ribonuclease A (50 μg ml^-1) was added. After 30 min a second centrifugation was carried out (7000× g, 30 min). Supernatant (~2 ml) was layered on a 10 ml continuous gradient of 2% Ficoll-9% D2 O to 20% Ficoll-90% D2 O in vesicle buffer containing 1 mM dithiothreitol. Centrifugation in a Beckman SW41 rotor was carried out at 80,000× g for 16 h. Fractions (~0.6 ml) were collected dropwise and the distribution of FC label determined. Because of slight variation in fraction size between gradients, data were normalized to 20 fractions for comparison between experiments. Solution density was determined gravimetrically using 100 μl portions of each fraction. The density of a given fraction was reproducible ±0.5% between experiments.
Fibroblast monolayers were incubated with ^3 H-FC LDL for 30 min at 31° C. to predominantly label the intermediate density vesicle fraction. Cell surface LDL was removed as described above. […]

The test system of assay [4] is fibroblast monolayers. Briefly: Cholesterol efflux from ^3 H-cholesterol labeled fibroblasts to plasma. Format: cell-based, human. Here is the method: Fibroblast monolayers were equilibrated with ^3 H-FC-labeled native plasma or with isolated ^3 H-labeled LDL, as specified for each experiment. Following incubation, the dishes were washed with albumin-complete PBS and then (×4) with complete PBS. They were then incubated for 3 min with unlabeled plasma or lipoprotein fractions and the rate of appearance of radioactivity in the medium determined. Samples of medium (100 μl) were immediately chilled in ice water and centrifuged (10 min, 2000× g) at 0-2° C. ^3 H-cholesterol radioactivity in the supernatant was either assayed directly, or fractionated by agarose gel electrophoresis. FC efflux was linear as previously reported (Kawano et al., Biochemistry, 32: 5025-5028 (1993)).
For electrophoresis, 20 μl portions of labeled medium were added to strips of 0.75% w/v agarose in 0.025M barbital buffer (pH 8.6) and separated as previously described (Fielding et al., Biochemistry, 30: 8551-8557 (1991)). 2.5 mm gel fractions were then collected, and radioactivity measured. The location of major lipoprotein classes was determined from strips run simultaneously with whole native plasma equilibrated (60 min, 37° C.) with ^3 H-FC.
^c Percent loss of label from cells prelabeled (10 min, 37° C.

In assay [5] the test system is LDL-receptor deficient cells (GM 2000 line). As to the kind of experiment: Influx of ^3 H-FC from LDL into LDL-receptor-deficient fibroblasts (GM 2000).
Where [6] appears, read: Homo sapiens, Fibroblast, read-out: Influx of 3H-FC, % Remaining.

Where only a bound is given, the exact number is not on record here.

Regarding `CO/C1=C\C(C)=C\[C@@H](C)[C@@H](O)[C@@H](C)C/C(C)=C/C=C/[C@H](OC)[C@@H]([C@@H](C)[C@@H](O)[C@H](C)[C@@]2(O)C[C@@H](O)[C@H](C)[C@@H](C(C)C)O2)OC1=O` [Bafilomycin A1], the “inhibition of LDL-FC pathway (summary, words)” value (“inhibition of LDL-FC pathway” below) in the assay on fibroblast monolayers [1] is on record as “inhibited”. Also, the activity at 45 µM in the assay on fibroblast monolayers [1] (setting [6]) came to 70 ± 4%. For the same compound, the Emax in the assay with fibroblast monolayers [1] (Homo sapiens, Fibroblast, read-out: maximal effect on uptake of FC from LDL) came to 30%.

On to `C[C@H]1CCC/C=C/[C@@H]2C[C@H](O)C[C@H]2[C@H](O)/C=C/C(=O)O1` [Brefeldin A], for which, in the assay on fibroblast monolayers [1], the “inhibition of LDL-FC pathway” value is listed as “not inhibited” and the “effect on uptake of ^3 H-FC from LDL” value is “without effect”. For the same compound, in the assay on fibroblast monolayers [2], the “transport of intracellular ^3 H-FC to the cell surface/caveolae” value (“transport … to the cell surface/caveolae” below) is reported as “unaffected” and the “% transfer of intracellular ^3 H-FC to the cell surface, relative to rate in absence of inhibitor” value was 95 ± 5%.

For `CCN(CC)CCCC(C)Nc1ccnc2cc(Cl)ccc12` (stereo not shown) [Chloroquine], in the assay with fibroblast monolayers [1], the “LDL-FC influx (discussion, words)” value is reported as “no effect”; the “FC Influx” value turned out to be 1.34 ± 0.04 µg; the “FC Influx, % (PBS only = 100.0)” value is 102.3%.

As to `C=C1C(C)C2C(Cc3ccccc3)NC(=O)C23C(OC(C)=O)/C=C/C(C)(O)C(=O)C(C)CC=CC3C1O` (stereo not shown) [Cytochalasin D], the “inhibition of LDL-FC pathway” value with fibroblast monolayers [1] is recorded as “inhibited”. In addition, in the assay with fibroblast monolayers [1] (setting [6]), the activity at 40 µM is 38 ± 2%. Further, in the assay with fibroblast monolayers [1] (Homo sapiens, Fibroblast, read-out: reduction of uptake of ^3 H-FC from LDL (average)), the inhibition at 40 µM came out at 65%. The “inhibition at higher concentration (words)” value is on record as “No greater inhibition” with fibroblast monolayers [1] (listed as Cytochalasin) and “no increase in inhibition” in the assay with fibroblast monolayers [1] (listed as cytochalasin D). For the same compound, the “transport … to the cell surface/caveolae” value in the assay on fibroblast monolayers [2] is on record as “no effect”. The “FC label in density gradient” value in the assay with fibroblast monolayers [3] is listed as “A similar result”.

With `O=[N+]([O-])[O-].[K+]` [KNO3], in the assay on fibroblast monolayers [1], the “inhibition of LDL-FC pathway” value is on record as “inhibited”; the “FC Influx” value turned out to be 0.28 ± 0.02 µg; the “FC Influx, % (PBS only = 100.0)” value worked out at 21.0%. In the assay on fibroblast monolayers [1] (50 mM KNO3, data not shown), the “time course of inhibition of ^3 H-FC transfer compared with NEM (FIG. 8)” value is “comparable time course”. Further, the “inhibition of uptake of free cholesterol from LDLs (summary)” value with fibroblast monolayers [1] (NEM or KNO3, Example 1, FIG. 8) is recorded as above 80%. The “initial rate of efflux of FC from prelabeled cells to plasma” value in the assay with fibroblast monolayers [4] is reported as “increased several-fold”. Also, in the assay on fibroblast monolayers [2], the “transport … to the cell surface/caveolae” value is “inhibited the return of FC to the cell surface, but less effectively than did nocodazole” and the “% transfer of intracellular ^3 H-FC to the cell surface, relative to rate in absence of inhibitor” value is listed as 70 ± 4%.

Consider `CC[C@@]1([C@@H]2O[C@@H]([C@H]3O[C@@](O)(CO)[C@H](C)C[C@@H]3C)C[C@@H]2C)CC[C@H]([C@]2(C)CC[C@]3(C[C@H](O)[C@@H](C)[C@@H]([C@@H](C)[C@@H](OC)[C@H](C)C(=O)O)O3)O2)O1` [Monensin], for which, in the assay on fibroblast monolayers [1], the “inhibition of LDL-FC pathway” value is on record as “inhibited”; the “effect on LDL FC uptake” value is “effective in reducing the selective uptake of FC from LDL”; the “inhibition at higher concentration (words)” value was “no increase in inhibition”. Moreover, the “FC label in density gradient” value in the assay on fibroblast monolayers [3] is reported as “A similar result”. Besides, the “selective uptake of FC from LDL, LDL-receptor deficient cells” value in assay [5] (GM2000) is given as “Comparable results”.

For the compound `[NH4+].[O]=[V](=[O])[O-]` [NH4 -vanadate], in the assay with fibroblast monolayers [1], the “inhibition of LDL-FC pathway” value is “not inhibited”; the “FC Influx” value amounted to 1.36 ± 0.08 µg; the “effect on LDL FC uptake” value is given as “without effect”; the “FC Influx, % (PBS only = 100.0)” value was 103.2%.

With `[N-]=[N+]=[N-].[Na+]` [Na-azide], in the assay on fibroblast monolayers [1], the “inhibition of LDL-FC pathway” value is “not inhibited”; the “FC Influx” value is 1.18 ± 0.02 µg; the “effect on LDL FC uptake” value is “without effect”; the “FC Influx, % (PBS only = 100.0)” value is recorded as 89.5%.

On to `COC(=O)Nc1nc2ccc(C(=O)c3cccs3)cc2[nH]1` [Nocodazole], for which, in the assay on fibroblast monolayers [1], the “inhibition of LDL-FC pathway” value is given as “not inhibited” and the “effect on uptake of ^3 H-FC from LDL” value was “without effect”. Also, in the assay on fibroblast monolayers [1] (Homo sapiens, Fibroblast, cytochalasin D 40 μM, monensin 40 μM, nocodazole 60 μM, bafilomycin A1 45 μM, means ±1 SD of three experiments, read-out: Influx of 3H-FC, % Remaining), the activity at 60 µM is 101 ± 6%. Also, in the assay with fibroblast monolayers [2], the “transport … to the cell surface/caveolae” value is “reduced”; the “transport of the vesicles to the plasma membrane (summary, words)” value is “inhibited”; the “% transfer of intracellular ^3 H-FC to the cell surface, relative to rate in absence of inhibitor” value is on record as 40 ± 1%.

For the compound `CC[C@]1(O)C[C@@H]2CN(CCc3c([nH]c4ccccc34)[C@@](C(=O)OC)(c3cc4c(cc3OC)N(C)[C@H]3[C@@](O)(C(=O)OC)[C@H](OC(C)=O)[C@]5(CC)C=CCN6CC[C@]43[C@@H]65)C2)C1` [Vinblastine], in the assay with fibroblast monolayers [1], the “inhibition of LDL-FC pathway” value is “not inhibited” and the “effect on uptake of ^3 H-FC from LDL” value is recorded as “without effect”. Further, the “transport … to the cell surface/caveolae” value with fibroblast monolayers [2] is given as “unaffected”. Besides, in the assay on fibroblast monolayers [2] (Homo sapiens, Fibroblast, read-out: % transfer of intracellular ^3 H-FC to the cell surface, relative to rate in absence of inhibitor), the inhibition at 40 µM is 100 ± 2%.

Turning to `[3H]C1C([3H])[C@@]2(C)C(=CC[C@H]3[C@@H]4CC[C@H]([C@H](C)CCCC(C)C)[C@@]4(C)CC[C@@H]32)C[C@H]1O` (stereo partly shown) [^3 H-FC, 1,2-^3 H-cholesterol], in the assay with fibroblast monolayers [2] (0-4° C., 4 experiments), the “cholest-4-en-3-one fraction of total label” value was determined as 0.8±0.2%. Further, the “t1/2 of increase in oxidized FC (transfer to cell surface)” value in the assay on fibroblast monolayers [2] (31° C., FIG. 11) is listed as ~ 2 min. Further, in the assay with fibroblast monolayers [2] (after 2 min pulse label, 31° C.), the “internalized FC localized to oxidase-sensitive fraction” value is reported as “about 40%”.

On to `CC(=O)O[C@H]1C(=O)[C@@]2(C)[C@H]([C@H](OC(=O)c3ccccc3)[C@]3(O)C[C@H](OC(=O)[C@H](O)[C@@H](NC(=O)c4ccccc4)c4ccccc4)C(C)=C1C3(C)C)[C@]1(OC(C)=O)CO[C@@H]1C[C@@H]2O` [taxol], for which, in the assay with fibroblast monolayers [1], the “inhibition of LDL-FC pathway” value is on record as “not inhibited” and the “effect on uptake of ^3 H-FC from LDL” value is “without effect”.

On to sodium heparin, for which the “inhibition of influx of FC from LDL” value was “Approximately 80%” in the assay with fibroblast monolayers [1] (heparin 0.1 mg/ml, normal cells, LDL 150 μg FC ml^-1, 10 min 37° C.) and “Approximately 80%” in assay [5] (heparin 0.1 mg/ml, GM 2000 cells).
